Structure (SMILES)	melting point [°C]
C[C@@H](c1ccccc1)n1c(O)nc2c(N)nc3ccccc3c21 [Example 5, 4-Amino-1-[(1S)-1-phenylethyl]-1H-imidazo[4,5-c]quinolin-2-ol]	292 to 295
COc1nc2c(N)nc3ccccc3c2n1Cc1ccccc1 [Example 7, 1-Benzyl-2-methoxy-1H-imidazo[4,5-c]quinolin-4-amine]	240 to 242

From patent publication US8377957B2, “Hydroxy and alkoxy substituted 1H-imidazoquinolines and methods” (3M Innovative Properties Company, priority 2005, dated 2013)
